From paper PMC11528023, “Transport mechanism and structural pharmacology of human urate transporter URAT1” (Cell Research, 2024)
Changes are numbered by the printed parent chain. Blank lines part the entries; values can stand above or below the molecule they belong to.

How the values were obtained:
URAT1WT [1] = target: T1, URAT1WT (Homo sapiens, UniProt Q96S37); test: Anion preloading 14C-urate uptake assay, WT URAT1; format: cell-based; details: Fig. 4e, f, NaCl uptake buffer
T1 construct: expressed in transfected cells; host or cells: HEK293 cells (ATCC, CRL-3216), transient transfection with Lipofectamine 3000
T1 sequence (Q96S37 1-553): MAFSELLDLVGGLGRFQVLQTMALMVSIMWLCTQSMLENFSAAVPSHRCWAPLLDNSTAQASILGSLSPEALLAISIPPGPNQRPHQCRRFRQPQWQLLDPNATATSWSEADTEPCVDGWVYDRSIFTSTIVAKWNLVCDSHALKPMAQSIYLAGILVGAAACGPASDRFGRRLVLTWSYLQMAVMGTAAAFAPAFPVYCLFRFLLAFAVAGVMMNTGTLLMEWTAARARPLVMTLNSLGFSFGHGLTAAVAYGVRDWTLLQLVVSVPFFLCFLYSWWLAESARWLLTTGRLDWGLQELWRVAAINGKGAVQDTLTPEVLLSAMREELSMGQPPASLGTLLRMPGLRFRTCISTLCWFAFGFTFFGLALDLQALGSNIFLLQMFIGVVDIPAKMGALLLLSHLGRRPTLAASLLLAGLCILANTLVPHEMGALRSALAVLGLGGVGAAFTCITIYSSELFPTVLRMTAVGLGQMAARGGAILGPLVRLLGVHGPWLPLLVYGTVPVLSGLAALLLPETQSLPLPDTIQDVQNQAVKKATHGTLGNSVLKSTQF

URAT1 Q473E = target: T2, URAT1 Q473E (Homo sapiens, UniProt Q96S37, Q473E); test: Anion preloading 14C-urate uptake assay, URAT1 Q473E; format: cell-based; details: Fig. 4e, f; Site 1 mutant
T2 construct: expressed in transfected cells; host or cells: HEK293 cells (ATCC, CRL-3216), transient transfection
T2 sequence (Q96S37 1-553 Q473E): T1 sequence (Q96S37 1-553) with Q473E

[2] = target: human URAT1 tagged with MBP and DARPin, with part of the intracellular loop (residues 280-343) replaced by OAT4 residues 277-339 (human) (UniProt Q96S37); test: cryo-EM particle images; purified protein at the high concentration used to prepare cryo-EM grids; particles seen on the grids (Supplementary Fig. S1b)
URAT1EM = target: T3, URAT1EM (Homo sapiens, UniProt Q96S37, A280P/A304R/A323S/A335R/D313K/DEL311-312/DEL60-62/G295A/G309E/G331A/G338L/G65T/I63V/INS307H/L287I/L292P/L321M/L328V/L337V/L341F/L64S/M324V/M330S/M343V/P317I/P333E/Q332K/R291K/R301K/R325K/R342C/S329A/T288I/T289K/T314N/T339D/W294Q/W300R); test: 14C-urate uptake in HEK293 cells expressing URAT1EM (cryo-EM construct); format: cell-based; details: read-out: IC50 for URAT1EM
T3 construct: human URAT1 (residues 3–553), a (GGGGS)3 linker, and C-terminal DARPinoff7; expressed in transfected cells; host or cells: HEK293 cells (ATCC, CRL-3216), transient transfection
T3 sequence (Q96S37 with tags, fused parts or gaps DEL60-62/I63V/L64S/G65T/A280P/L287I/T288I/T289K/R291K/L292P/W294Q/G295A/W300R/R301K/A304R/INS307H/G309E/DEL311-312/D313K/T314N/P317I/L321M/A323S/M324V/R325K/L328V/S329A/M330S/G331A/Q332K/P333E/A335R/L337V/G338L/T339D/L341F/R342C/M343V): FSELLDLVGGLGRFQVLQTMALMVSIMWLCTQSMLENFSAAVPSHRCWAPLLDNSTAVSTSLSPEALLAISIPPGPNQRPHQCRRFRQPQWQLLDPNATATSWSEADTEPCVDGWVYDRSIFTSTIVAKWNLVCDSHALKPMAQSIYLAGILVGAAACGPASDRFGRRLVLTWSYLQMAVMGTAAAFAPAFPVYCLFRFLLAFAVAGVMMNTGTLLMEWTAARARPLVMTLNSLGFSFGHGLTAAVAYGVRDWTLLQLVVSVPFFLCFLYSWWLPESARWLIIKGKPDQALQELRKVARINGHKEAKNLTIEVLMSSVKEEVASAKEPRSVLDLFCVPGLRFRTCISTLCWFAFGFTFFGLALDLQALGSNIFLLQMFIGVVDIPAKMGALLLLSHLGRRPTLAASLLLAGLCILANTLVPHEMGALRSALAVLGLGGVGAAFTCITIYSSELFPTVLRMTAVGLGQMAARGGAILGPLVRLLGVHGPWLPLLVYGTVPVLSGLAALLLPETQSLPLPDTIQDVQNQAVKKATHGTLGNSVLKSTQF
Procedure: (§1) Data are shown as mean ± SD; n = 3 biological replicates. In a, b, uptake buffer: 20 mM HEPES pH 7.4, 125 mM sodium gluconate, 4.8 mM potassium gluconate, 1.2 mM monobasic potassium phosphate, 1.2 mM magnesium sulfate, 1.3 mM calcium gluconate, and 5.6 mM glucose. c Cryo-EM density maps of URAT1 in the apo and substrate-bound states. […] Putative lipid densities are in light cyan. d Cryo-EM density maps of URAT1 in the drug-bound states. […] Putative lipid densities are in light cyan. e Diagram of URAT1 topology. ECD, extracellular domain. f Structure of URAT1 in the apo state. g Slice view of URAT1 in the apo state, showing the central cavity and opening to the intracellular side.
(§2) Human embryonic kidney (HEK) 293 cells (ATCC, CRL-3216) were seeded onto poly(D-lysine)-coated 96-well plates at a density of 0.3 × 10^5 cells per well and cultured at 37 °C until reaching approximately 70%–80% confluence. The cells were transiently transfected with plasmids encoding the URAT1 WT or mutants using Lipofectamine 3000 (Invitrogen, L3000001), following the manufacturer’s protocol. The transfected cells were cultured at 37 °C for 12 h. Following this, 10 mM sodium butyrate was added, and the cells were further incubated at 30 °C for an additional 24 h. […]

URAT1WT [3] = target: T1, URAT1WT; test: 14C-urate uptake inhibition in HEK293 cells expressing WT URAT1; format: cell-based
Procedure: as §1, §2

URAT1 = target: T4, URAT1 (Homo sapiens, UniProt Q96S37); test: Effect of reducing anion gradients on 14C-urate uptake; format: cell-based; details: 125 mM sodium phosphate in place of sodium gluconate in uptake buffer, Fig. S12b
T4 construct: expressed in transfected cells; host or cells: HEK293 cells (ATCC, CRL-3216), transient transfection with Lipofectamine 3000
T4 sequence (Q96S37 1-553): T1 sequence (Q96S37 1-553)
Procedure: Human embryonic kidney (HEK) 293 cells (ATCC, CRL-3216) were seeded onto poly(D-lysine)-coated 96-well plates at a density of 0.3 × 10^5 cells per well and cultured at 37 °C until reaching approximately 70%–80% confluence. The cells were transiently transfected with plasmids encoding the URAT1 WT or mutants using Lipofectamine 3000 (Invitrogen, L3000001), following the manufacturer’s protocol. The transfected cells were cultured at 37 °C for 12 h. Following this, 10 mM sodium butyrate was added, and the cells were further incubated at 30 °C for an additional 24 h. The medium was aspirated, and the cells were rinsed once with assay buffer (20 mM HEPES pH 7.4, 125 mM sodium gluconate, 4.8 mM potassium gluconate, 1.2 mM monobasic potassium phosphate, 1.2 mM magnesium sulfate, 1.3 mM calcium gluconate, and 5.6 mM glucose) and then incubated with 400 µM urate consisted of 80 µM ^14C-radiolabeled (50–60 mCi/mmol, 0.5 mCi/mL, American Radiolabeled Chemicals, Inc.) and 320 µM non-radiolabeled in assay buffer at 37 °C for 20 min. In some experiments, 125 mM sodium gluconate was replaced by sodium chloride, sulfate, or phosphate. […] The cells were then lysed in 0.1 M NaOH, and the lysed samples were added to scintillation liquid to measure radioactivity using a PerkinElmer Microbeta2 counter. […]

Molecule: O=C(O)c1cnccn1 [Pyrazinoate, pyrazinoate]
Potentiation in urate uptake by anion preloading (fold change), WT (URAT1WT [1]): 3.5 fold | Potentiation in urate uptake by anion preloading (fold change), Q473E (URAT1 Q473E): 1.2 fold

stoichiometry N [2]: 2
Molecule: human URAT1 tagged with MBP and DARPin, with part of the intracellular loop (residues 280-343) replaced by OAT4 residues 277-339 (from UniProt Q96S37 1-279; Q9NSA0 277-339; Q96S37 344-553)

IC50 (URAT1EM): 63 nM | IC50 (URAT1WT [3]): 53 nM
Molecule: CC(C)(Sc1ccncc1-c1ccc(C#N)c2ccccc12)C(=O)O [verinurad]

Impact on URAT1 function (14C-urate uptake) (URAT1): minimal impact
Molecule: phosphate
